According to patent US20230149407A1, “Methods of Treating Coronavirus Disease 2019” (priority 2020, published 2023):
Entries after “also recorded” stand apart in the source; their conditions may differ.

What was measured:
[1] = system: moderately to severely active RA; assay: 12-week study in patients with moderately to severely active RA; type: in vivo, human; conditions: doses of 200 and 400 mg as modified release (MR) tablets
[2] = system: blood transcriptional programs for type I interferons and IL-6; assay: blood transcriptional programs in healthy volunteers and RA patients; type: in vivo, human
inflammatory monocytes = assay: levels of inflammatory monocytes; design: species or system human; conditions: in vivo
[3] = system: human bronchial epithelial cells; assay: chemokine production from human bronchial epithelial cells; type: cell-based
C-reactive protein (CRP) = assay: expected reduction in CRP (exposure response model); type: in vivo, human
LPS-induced TNFα = assay: acute model of endotoxin-induced inflammation in rats; type: in vivo, rat; conditions: administered orally
[4] = system: imiquimod (a TLR7 agonist)-induced skin inflammation; assay: 5-day murine model of imiquimod-induced skin inflammation; type: in vivo; conditions: 5-day murine imiquimod model
[5] = system: collagen-induced arthritis; assay: rat collagen-induced arthritis model; type: in vivo
hsCRP = hsCRP in healthy adults; type: in vivo, human
[6] = renal excretion of PF-06650833; conditions: in vivo
IL-6 = assay: expected suppression of IL-6 at clinical tofacitinib doses; type: in vivo, human
IL-6/STAT3 signaling = assay: in-vitro IL-6/STAT3 signaling; type: cell-based; conditions: both at 5 and 10 mg
[7] = system: IFNα, IFNβ, IFNγ, TNFα, IL-1, IL-2, IL4, IL-6, IL-7, IL-9, IL-10, IL-12, IL13, IL-15, IL-21, IL-23, and IL-27; conditions: cited from earlier work

CC[C@@H]1[C@H](F)C(=O)N[C@@H]1COc1nccc2cc(C(N)=O)c(OC)cc12 [PF-06650833, 1-(((2S,3S,4S)-3-Ethyl-4-fluoro-5-oxopyrrolidin-2-yl)methoxy)-7-methoxyisoquinoline-6-carboxamide]
efficacy in 12-week study in RA patients [1]: demonstrated efficacy
blood transcriptional programs for type I interferons and IL-6 [2]: dose-dependently inhibits
levels of inflammatory monocytes (inflammatory monocytes): reduces levels
chemokine production, IL-1β-stimulated release of CXCL8 and IL-6 [3]: reduces
reduction in CRP (C-reactive protein (CRP); 200 mg IR suspension Q6H): 50-60%
reduction in CRP (C-reactive protein (CRP); 400 mg MR tablets QD (or 200 mg IR suspension Q6H)): 50-60%
LPS-induced TNFα (LPS-induced TNFα): inhibit LPS-induced TNFα in a dose-dependent manner
ear swelling [4]: inhibit ear swelling in a dose-dependent manner
hind paw swelling [5]: significantly reduced
levels of hsCRP (hsCRP): suppression of CRP; also recorded: dose-dependently reduced
renal excretion [6]: low

C[C@@H]1CCN(C(=O)CC#N)C[C@@H]1N(C)c1ncnc2[nH]ccc12 [tofacitinib, 3-((3R,4R)-4-Methyl-3-(methyl(7H-pyrrolo[2,3-d]pyrimidin-4-yl)amino)piperidin-1-yl)-3-oxopropanenitrile]
predicted suppression of IL-6 (IL-6; 5 mg BID dose): approximately 60%
suppression of IL-6 (IL-6; 10 mg BID dose, may be expected): approximately 80%
IL-6/STAT3 signaling (IL-6/STAT3 signaling): inhibits
levels of IFNα, IFNβ, IFNγ, TNFα, IL-1, IL-2, IL4, IL-6, IL-7, IL-9, IL-10, IL-12, IL13, IL-15, IL-21, IL-23, and IL-27 [7]: reduces levels
